In patent US20120165309A1, “HETERO RING DERIVATIVE” (Astellas Pharma Inc., priority 2009, published 2012):
Where a name gives a salt, the structure may show the parent alone. One block for each compound: values may come before it.

Tests used:
IL-2 production = experiment: Rat in vivo IL-2 production inhibition test (Concanavalin A induced); details: po, male LEW/CrlCrlj rats, 10 mg/kg orally, 2 hours before Concanavalin A 15 mg/kg i.v., blood IL-2 at 3 hours after Concanavalin A, read-out: IL-2 production inhibition activity (inhibition rate vs vehicle control)
Experimental: 3. Rat In vivo IL-2 Production Inhibition Test
For the experiment, male LEW/CrlCrlj rats (Charles River Laboratories, Japan, Inc.) (6-week old, body weight 130 to 180 g) were used. The test compound was suspended in a 0.5% methyl cellulose solution and orally administered at 5 mL/kg. IL-2 production was induced by tail vein injection of Concanavalin A (Funakoshi Corporation, Catalogue No. L-1000) at a dose of 15 mg/kg.
The test was carried out according to the protocol shown below. At 2 hours or 16 hours before administration of Concanavalin A, the test compound was orally administered to rats. At 3 hours after administration of Concanavalin A, blood was collected. The IL-2 concentration in blood was quantified using an ELISA kit (R&D Systems, Inc., Catalogue No. DY502E). An inhibition rate was calculated from the amount of IL-2 produced in a group administered with the test compound with respect to the amount of the IL-2 produced of a control group administered with a vehicle.

Human PI3Kα = molecular target: T1, Human PI3Kα (Homo sapiens, UniProt P42336); experiment: PI3Kα enzyme inhibitory activity (Kinase-Glo Plus luminescence); assay type: biochemical; details: Human PI3Kα 12 ng/well, phosphatidylinositol 0.2 μg/well, 37° C. for 3 hours
T1 construct: purchased Millipore Corporation 14-602
T1 sequence (P42336 whole entry): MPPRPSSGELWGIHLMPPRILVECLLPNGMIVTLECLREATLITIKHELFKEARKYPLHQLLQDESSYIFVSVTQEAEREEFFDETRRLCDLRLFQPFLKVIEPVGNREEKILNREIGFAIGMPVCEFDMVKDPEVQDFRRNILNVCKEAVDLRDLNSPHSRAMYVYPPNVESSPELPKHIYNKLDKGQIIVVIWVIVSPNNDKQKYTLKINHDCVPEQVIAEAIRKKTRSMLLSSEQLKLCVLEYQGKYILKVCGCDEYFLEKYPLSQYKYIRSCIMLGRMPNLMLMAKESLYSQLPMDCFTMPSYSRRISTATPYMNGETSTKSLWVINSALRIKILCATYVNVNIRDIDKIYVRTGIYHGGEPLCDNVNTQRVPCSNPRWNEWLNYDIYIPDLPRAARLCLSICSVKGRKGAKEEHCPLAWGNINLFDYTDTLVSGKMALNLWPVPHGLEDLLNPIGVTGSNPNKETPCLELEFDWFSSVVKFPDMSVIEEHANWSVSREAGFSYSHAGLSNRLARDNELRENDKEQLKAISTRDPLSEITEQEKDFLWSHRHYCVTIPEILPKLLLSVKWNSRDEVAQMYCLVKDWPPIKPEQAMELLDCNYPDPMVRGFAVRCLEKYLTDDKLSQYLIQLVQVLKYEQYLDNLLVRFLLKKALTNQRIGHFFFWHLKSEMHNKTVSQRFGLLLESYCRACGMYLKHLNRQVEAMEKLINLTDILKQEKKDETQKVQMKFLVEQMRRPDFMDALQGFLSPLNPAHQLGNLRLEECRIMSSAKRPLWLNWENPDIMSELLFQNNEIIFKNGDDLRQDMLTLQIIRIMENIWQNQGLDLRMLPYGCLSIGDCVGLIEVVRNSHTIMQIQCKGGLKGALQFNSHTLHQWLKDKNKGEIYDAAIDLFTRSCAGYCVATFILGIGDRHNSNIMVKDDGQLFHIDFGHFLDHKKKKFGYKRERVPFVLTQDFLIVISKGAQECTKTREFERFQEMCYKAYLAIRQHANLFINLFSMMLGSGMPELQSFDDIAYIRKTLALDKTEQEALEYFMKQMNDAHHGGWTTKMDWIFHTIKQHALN
T1 sequence (P27986 whole entry partner): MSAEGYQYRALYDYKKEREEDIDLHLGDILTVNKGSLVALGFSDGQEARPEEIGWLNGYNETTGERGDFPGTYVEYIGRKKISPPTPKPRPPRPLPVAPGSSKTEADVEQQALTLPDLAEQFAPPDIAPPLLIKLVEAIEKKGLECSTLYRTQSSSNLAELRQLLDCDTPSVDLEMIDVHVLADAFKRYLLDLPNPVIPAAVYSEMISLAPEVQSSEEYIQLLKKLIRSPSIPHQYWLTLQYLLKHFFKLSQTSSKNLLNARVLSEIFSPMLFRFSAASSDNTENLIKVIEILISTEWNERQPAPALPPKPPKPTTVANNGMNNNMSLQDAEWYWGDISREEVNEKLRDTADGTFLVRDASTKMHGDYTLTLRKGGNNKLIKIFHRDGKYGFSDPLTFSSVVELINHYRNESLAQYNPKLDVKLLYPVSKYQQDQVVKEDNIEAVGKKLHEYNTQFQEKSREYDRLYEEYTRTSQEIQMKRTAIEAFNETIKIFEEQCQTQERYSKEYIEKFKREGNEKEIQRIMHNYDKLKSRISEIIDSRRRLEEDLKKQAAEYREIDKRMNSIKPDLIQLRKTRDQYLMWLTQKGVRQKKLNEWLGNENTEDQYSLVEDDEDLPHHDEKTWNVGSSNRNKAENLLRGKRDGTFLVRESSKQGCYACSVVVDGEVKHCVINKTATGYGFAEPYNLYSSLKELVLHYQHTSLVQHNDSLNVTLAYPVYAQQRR
Experimental: 2. PI3Kα Enzyme Inhibitory Activity
Human PI3Kα (12 ng/well, Millipore Corporation, Catalogue No. 14-602), phosphatidylinositol (0.2 μg/well), and the test compound were mixed in a 384-well plate in a reaction buffer (50 mM Hepes, 10 mM NaCl, 10 mM MgCl2, 2 mM EGTA, 2 mM DTT, pH 7.3) (total 10 μl), and incubated at 37° C. for 3 hours. After the reaction, 10 μL of a Kinase-Glo Plus reagent (Promega, Catalogue No. V3772) was added thereto, and a luminescence was measured with a luminometer. The IC50 value of the compound was calculated, taking the inhibition rate without addition of the enzyme as 100% and the inhibition rate without addition of the test compound as 0%, by a logistic method.
(§1) In the Table, Ex represents Example Compound No. as described later, PI3Kδ represents the IC50 value (nM) of a PI3Kδ enzyme inhibitory activity, and PI3Kα represents the IC50 value (nM) of a PI3Kα enzyme inhibitory activity.

human PI3Kδ enzyme = molecular target: T2, human PI3Kδ enzyme (Homo sapiens, UniProt O00329); experiment: PI3Kδ enzyme inhibitory activity (PI3-Kinase HTRF Assay kit); assay type: biochemical; details: human PI3Kδ 10 ng/well, ATP 30 μM, PIP2 10 μM, room temperature 30 minutes
T2 construct: purchased Millipore Corporation 14-604
T2 sequence (O00329 whole entry): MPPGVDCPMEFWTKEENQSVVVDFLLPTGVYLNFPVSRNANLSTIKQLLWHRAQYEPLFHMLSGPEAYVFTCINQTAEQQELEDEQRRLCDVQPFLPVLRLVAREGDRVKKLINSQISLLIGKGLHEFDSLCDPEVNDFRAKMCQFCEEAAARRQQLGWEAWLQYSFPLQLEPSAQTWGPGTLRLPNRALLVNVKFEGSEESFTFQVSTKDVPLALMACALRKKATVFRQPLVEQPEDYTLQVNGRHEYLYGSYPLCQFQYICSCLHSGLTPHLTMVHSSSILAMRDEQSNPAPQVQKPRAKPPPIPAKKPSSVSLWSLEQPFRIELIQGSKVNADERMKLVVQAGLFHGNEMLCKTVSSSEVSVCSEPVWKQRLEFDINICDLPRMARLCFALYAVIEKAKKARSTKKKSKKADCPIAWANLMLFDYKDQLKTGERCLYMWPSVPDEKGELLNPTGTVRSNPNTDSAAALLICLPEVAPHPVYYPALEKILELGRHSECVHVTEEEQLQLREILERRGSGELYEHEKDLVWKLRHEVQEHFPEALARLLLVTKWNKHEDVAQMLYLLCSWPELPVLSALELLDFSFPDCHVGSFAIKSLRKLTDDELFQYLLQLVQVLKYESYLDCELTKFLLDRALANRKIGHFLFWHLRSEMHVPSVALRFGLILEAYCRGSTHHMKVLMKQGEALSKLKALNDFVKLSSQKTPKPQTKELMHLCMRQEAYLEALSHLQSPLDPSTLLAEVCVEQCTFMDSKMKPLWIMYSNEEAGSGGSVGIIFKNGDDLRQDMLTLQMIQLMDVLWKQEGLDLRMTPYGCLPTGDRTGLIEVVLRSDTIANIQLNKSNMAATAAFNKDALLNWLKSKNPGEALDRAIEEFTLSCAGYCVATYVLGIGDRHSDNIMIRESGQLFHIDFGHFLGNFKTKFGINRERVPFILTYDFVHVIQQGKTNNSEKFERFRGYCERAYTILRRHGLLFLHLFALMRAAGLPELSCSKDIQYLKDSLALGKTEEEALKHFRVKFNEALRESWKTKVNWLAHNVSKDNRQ
T2 sequence (P27986 whole entry partner): as the sequence (P27986 whole entry partner) above
Experimental: 1. PI3Kδ Enzyme Inhibitory Activity
For the experiment, a PI3-Kinase HTRF Assay kit (Millipore Corporation, Catalogue No. 33-016) and a human PI3Kδ enzyme (Millipore Corporation, Catalogue No. 14-604) were used. The measurement method was in accordance with the appended instructions. The overview thereof is as follows.
PI3Kδ (10 ng/well), phosphatidylinositol-4,5-bisphosphate (10 μM), ATP (30 μM), and the test compound were mixed in a 384-well plate (total 20 μL), and incubated at room temperature for 30 minutes. EDTA and biotinylated phosphatidylinositol-3,4,5-triphosphate were added thereto to stop the reaction. Thereafter, a Europium labeled anti-GST antibody, a GST bond GRP1 PH domain, and streptavidin-APC were added thereto, followed by incubation overnight. An HTRF ratio was measured using an HTRF plate reader. The IC50 value of the compound was calculated, taking the inhibition rate without addition of the enzyme as 100% and the inhibition rate without addition of the test compound as 0%, by means of a logistic method.
as §1

[1] = test system: Spleen cells (B cell proliferation); experiment: Rat B cell proliferation inhibition test (anti-rat IgM, [3H]thymidine); assay type: cell-based; details: anti-rat IgM 3 μg/well, 48 hours culture, [3H]thymidine uptake
Experimental: 4. Rat B Cell Proliferation Inhibition Test
Spleen cells (1.0×10^5 cells/well) prepared from male LEW/CrlCrlj rats (Charles River Laboratories, Japan, Inc.), mouse F(ab′)2 fragment anti-rat IgM (3 μg/well, SouthernBiotech Associates, Inc., Catalogue No. 3082-14) and the test compound dissolved in DMSO (final DMSO concentration 0.1%) were mixed in a 96-well plate using a 10% FCS-containing RPMI-1640 culture medium (total 200 μL). They were cultured in a CO2 incubator for 48 hours and [^3H]thymidine (925 GBq/mmol, Moravek Biochemicals, Inc., Catalogue No. MT6038) was added thereto at 0.037 MBq/well at 4 hours before completion of culture. Cells were harvested in a GF/C glass filter using a cell harvester, and a radioactivity on the filter was measured using a liquid scintillation counter. The IC50 value of the compound was calculated, taking the dpm (disintegration per minute) without addition of IgM as an inhibition rate of 100% and the dpm without addition of the test compound as an inhibition rate of 0%, by a logistic method.

SMILES: FC(F)c1nc2ccccc2n1-c1cc(N2CCOCC2)nc(NC[C@H]2CC[C@H](N3CCOCC3)CC2)n1 [Example 201]
inhibition in vivo at 10 mg/kg (IL-2 production): 76%

SMILES: CN(C)CC(=O)N[C@H]1CC[C@H](Oc2cc(-n3c(C(F)F)nc4ccccc43)nc(N3CCOCC3)n2)CC1 [Example 24, N-[trans-4-({6-[2-(difluoromethyl)-1H-benzimidazol-1-yl]-2-morpholin-4-ylpyrimidin-4-yl}oxy)cyclohexyl]-N,N-dimethylglycinamide hydrochloride]
IC50 (human PI3Kδ enzyme): 5.2 nM | inhibition in vivo at 10 mg/kg (IL-2 production): 79% | IC50 [1]: 4.2 nM | IC50 (Human PI3Kα): > 3000 nM

SMILES: COCCN(C)[C@H]1CC[C@H](CNc2nc(N3CCOCC3)cc(-n3c(C(F)F)nc4ccccc43)n2)CC1 [Example 219]
IC50 (human PI3Kδ enzyme): 14 nM | inhibition in vivo at 10 mg/kg (IL-2 production): 78% | IC50 [1]: 3.5 nM | IC50 (Human PI3Kα): 6000 nM

SMILES: CC(=O)N[C@H]1CC[C@H](Nc2nc(N3CCOCC3)cc(-n3c(C(F)F)nc4ccccc43)n2)CC1 [Example 194]
inhibition in vivo at 10 mg/kg (IL-2 production): 89%

SMILES: FC(F)c1nc2ccccc2n1-c1cc(NC[C@H]2CC[C@H](N3CCOCC3)CC2)nc(N2CCOCC2)n1 [Example 223]
IC50 (human PI3Kδ enzyme): 6.2 nM | IC50 [1]: 1.5 nM | IC50 (Human PI3Kα): > 10000 nM

SMILES: CN(CC(C)(C)O)[C@H]1CC[C@H](CNc2cc(-n3c(C(F)F)nc4ccccc43)nc(N3CCOCC3)n2)CC1 [Example 495]
IC50 (human PI3Kδ enzyme): 14 nM | IC50 [1]: 1.7 nM | IC50 (Human PI3Kα): 6700 nM

SMILES: FC(F)c1nc2ccccc2n1-c1cc(N2CCOCC2)nc(NC[C@H]2CC[C@H](N3CCCCC3)CC2)n1 [Example 202]
inhibition in vivo at 10 mg/kg (IL-2 production): 80%

SMILES: CC(N(C)[C@H]1CC[C@H](CNc2nc(N3CCOC[C@H]3C)cc(-n3c(C(F)F)nc4ccccc43)n2)CC1)C(C)(C)O (some centres unmarked) [Example 506]
IC50 (human PI3Kδ enzyme): 4.3 nM | IC50 [1]: 0.75 nM | IC50 (Human PI3Kα): 590 nM

SMILES: COCCN(CC1CC1)[C@H]1CC[C@H](CNc2nc(N3CCOCC3)cc(-n3c(C(F)F)nc4ccccc43)n2)CC1 [Example 271]
IC50 (human PI3Kδ enzyme): 2.6 nM | IC50 [1]: 5.5 nM | IC50 (Human PI3Kα): 2500 nM

SMILES: COCCN[C@H]1CC[C@H](CNc2cc(-n3c(C(F)F)nc4ccccc43)nc(N3CCOCC3)n2)CC1 [Example 496]
IC50 (human PI3Kδ enzyme): 17 nM | IC50 [1]: 1.7 nM | IC50 (Human PI3Kα): 7600 nM

SMILES: CCN(CCOC)[C@H]1CC[C@H](CNc2nc(N3CCOCC3)cc(-n3c(C(F)F)nc4ccccc43)n2)CC1 [Example 363]
IC50 (human PI3Kδ enzyme): 18 nM | IC50 [1]: 1.4 nM | IC50 (Human PI3Kα): 1400 nM

SMILES: CC(C)(O)[C@@H]1CCCN1C1CCC(CNc2nc(N3CCOCC3)cc(-n3c(C(F)F)nc4ccccc43)n2)CC1 (some centres unmarked) [Example 490]
IC50 (human PI3Kδ enzyme): 9.4 nM | IC50 [1]: 0.76 nM | IC50 (Human PI3Kα): 1600 nM

The next lines start with results.

IC50 (Human PI3Kα): 1200 nM
SMILES: CN(C)CC(=O)N[C@H]1CC[C@H](Nc2nc(N3CCOCC3)nc(-n3c(C(F)F)nc4ccccc43)n2)CC1 [Example 40]
inhibition in vivo at 10 mg/kg (IL-2 production): 94%

IC50 (human PI3Kδ enzyme): 14 nM | IC50 (Human PI3Kα): 930 nM
SMILES: O=C1CCCN1[C@H]1CC[C@H](Nc2nc(N3CCOCC3)cc(-n3c(C(F)F)nc4ccccc43)n2)CC1 [Example 11, 1-[trans-4-({4-[2-(difluoromethyl)-1H-benzimidazol-1-yl]-6-morpholin-4-ylpyrimidin-2-yl}amino)cyclohexyl]pyrrolidin-2-one]
inhibition in vivo at 10 mg/kg (IL-2 production): 80% | IC50 [1]: 6.1 nM

IC50 (human PI3Kδ enzyme): 33 nM | IC50 (Human PI3Kα): 2000 nM
SMILES: CN(C)[C@H]1CC[C@H](Nc2nc(N3CCOCC3)nc(-n3c(C(F)F)nc4ccccc43)n2)CC1 [Example 4, trans-N′-{4-[2-(difluoromethyl)-1H-benzimidazol-1-yl]-6-morpholin-4-yl-1,3,5-triazin-2-yl}-N,N-dimethylcyclohexane-1,4-diamine]
inhibition in vivo at 10 mg/kg (IL-2 production): 83% | IC50 [1]: 1.8 nM

IC50 (human PI3Kδ enzyme): 4.4 nM | IC50 (Human PI3Kα): 3300 nM
SMILES: CN(CCF)[C@H]1CC[C@H](CNc2nc(N3CCOCC3)cc(-n3c(C(F)F)nc4ccccc43)n2)CC1 [Example 206]
inhibition in vivo at 10 mg/kg (IL-2 production): 83% | IC50 [1]: 4.1 nM

IC50 (human PI3Kδ enzyme): 44 nM | IC50 (Human PI3Kα): > 3000 nM
SMILES: CN(C)CC(=O)N[C@H]1CC[C@H](Nc2cc(-n3c(C(F)F)nc4ccccc43)nc(N3CCOCC3)n2)CC1 [Example 46]
inhibition in vivo at 10 mg/kg (IL-2 production): 71% | IC50 [1]: 5.2 nM

IC50 (human PI3Kδ enzyme): 3.5 nM | IC50 (Human PI3Kα): 3100 nM
SMILES: COC[C@@H]1CCCN1[C@H]1CC[C@H](CNc2cc(-n3c(C(F)F)nc4ccccc43)nc(N3CCOCC3)n2)CC1 [Example 513]
IC50 [1]: 0.64 nM

IC50 (human PI3Kδ enzyme): 1.5 nM | IC50 (Human PI3Kα): 2600 nM
SMILES: FC[C@@H]1CCCN1[C@H]1CC[C@H](CNc2cc(-n3c(C(F)F)nc4ccccc43)nc(N3CCOCC3)n2)CC1 [Example 484]
IC50 [1]: 2.2 nM

IC50 (human PI3Kδ enzyme): 6 nM | IC50 (Human PI3Kα): 5800 nM
SMILES: C#CCN[C@H]1CC[C@H](CNc2nc(N3CCOCC3)cc(-n3c(C(F)F)nc4ccccc43)n2)CC1 [Example 422]
IC50 [1]: 4.9 nM

IC50 (human PI3Kδ enzyme): 7.9 nM | IC50 (Human PI3Kα): 4400 nM
SMILES: CC(C)(O)[C@@H]1CCCN1C1CCC(CNc2cc(-n3c(C(F)F)nc4ccccc43)nc(N3CCOCC3)n2)CC1 (some centres unmarked) [Example 487]
IC50 [1]: 1.4 nM

IC50 (human PI3Kδ enzyme): 8.1 nM | IC50 (Human PI3Kα): 1700 nM
SMILES: CCN(C(C)C(C)(C)O)[C@H]1CC[C@H](CNc2nc(N3CCOCC3)cc(-n3c(C(F)F)nc4ccccc43)n2)CC1 (some centres unmarked) [Example 471]
IC50 [1]: 1.3 nM

IC50 (human PI3Kδ enzyme): 4.6 nM | IC50 (Human PI3Kα): 3400 nM
SMILES: FC[C@@H]1CCCN1[C@H]1CC[C@H](COc2cc(-n3c(C(F)F)nc4ccccc43)nc(N3CCOCC3)n2)CC1 [Example 482]
IC50 [1]: 4.6 nM

IC50 (human PI3Kδ enzyme): 7.1 nM | IC50 (Human PI3Kα): 2200 nM
SMILES: CC#CCN(CC(C)(C)O)[C@H]1CC[C@H](CNc2nc(N3CCOCC3)cc(-n3c(C(F)F)nc4ccccc43)n2)CC1 [Example 437]
IC50 [1]: 3.6 nM

IC50 (human PI3Kδ enzyme): 4.9 nM | IC50 (Human PI3Kα): 2500 nM
SMILES: COCCCN(C)[C@H]1CC[C@H](CNc2nc(N3CCOCC3)cc(-n3c(C(F)F)nc4ccccc43)n2)CC1 [Example 280]
IC50 [1]: 3.8 nM

IC50 (human PI3Kδ enzyme): 4.9 nM | IC50 (Human PI3Kα): 700 nM
SMILES: CCN(CC(C)(C)O)[C@H]1CC[C@H](CNc2nc(N3CCOC[C@@H]3C)cc(-n3c(C(F)F)nc4ccccc43)n2)CC1 [Example 403]
IC50 [1]: 0.82 nM

IC50 (human PI3Kδ enzyme): 7.7 nM | IC50 (Human PI3Kα): 780 nM
SMILES: C[C@H]1COCCN1c1cc(-n2c(C(F)F)nc3ccccc32)nc(NC[C@H]2CC[C@H](N(C)CC(C)(C)O)CC2)n1 [Example 393]
IC50 [1]: 0.7 nM

IC50 (human PI3Kδ enzyme): 4.5 nM | IC50 (Human PI3Kα): 570 nM
SMILES: C=CCN(C(C)COC)[C@H]1CC[C@H](CNc2nc(N3CCOC[C@@H]3C)cc(-n3c(C(F)F)nc4ccccc43)n2)CC1 (some centres unmarked) [Example 491]
IC50 [1]: 1.8 nM
